PubChem BioAssay (NCI)
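Following 48 hours of exposure in 96-well plates, responses at five concentrations were used to interpolate endpoints linearly. GI50 marks 50% less growth. At the TGI there is no net growth.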

How the values were obtained:
Test in all cases: NCI anticancer screen, dose series, 48 h
[1] = system: SK-MEL-2 melanoma
[2] = system: A549 NSCLC
[3] = system: OVCAR-4 ovarian
[4] = system: IGROV1 ovarian
[5] = system: BT-549 breast
[6] = system: NCI-H226 lung
[7] = system: HOP-62 NSCLC
[8] = system: LOX IMVI melanoma
[9] = system: CAKI-1 renal
[10] = system: SF-295 CNS
[11] = system: KM12 colon
[12] = system: UACC-257 melanoma
[13] = system: 786-0 renal
[14] = system: HS 578T breast
[15] = system: SK-MEL-5 melanoma
[16] = system: NCI-H460 lung
[17] = system: U251 CNS
[18] = system: HCC-2998 colon
[19] = system: HOP-92 NSCLC
[20] = system: MCF7 breast
[21] = system: M14 melanoma
[22] = system: SK-MEL-28 melanoma
[23] = system: UACC-62 melanoma
[24] = system: RXF 393 renal
[25] = system: NCI/ADR-RES ovarian
[26] = system: T-47D breast
[27] = system: OVCAR-8 ovarian
[28] = system: COLO 205 colon
[29] = system: OVCAR-3 ovarian
[30] = system: HT29 colon
[31] = system: HCT-116 colon
[32] = system: SF-539 CNS
[33] = system: SNB-75 CNS
[34] = system: SNB-19 CNS
[35] = system: TK-10 renal
[36] = system: CCRF-CEM leukemia
[37] = system: MDA-MB-435
[38] = system: PC-3 prostate
[39] = system: OVCAR-5 ovarian
[40] = system: ACHN renal
[41] = system: SN12C renal
[42] = system: SR leukemia
[43] = system: HCT-15 colon
[44] = system: MALME-3M melanoma
[45] = system: DU-145 prostate
[46] = system: MDA-MB-231 breast
[47] = system: NCI-H522 lung
[48] = system: HL-60(TB) leukemia
[49] = system: K-562 leukemia
[50] = system: SK-OV-3 ovarian
[51] = system: SW-620 colon
[52] = system: RPMI-8226 leukemia
[53] = system: UO-31 renal
[54] = system: NCI-H23 lung
[55] = system: MOLT-4 leukemia
[56] = system: A498 renal
[57] = system: SF-268 CNS

COc1ccccc1CCN=C1NC(=O)/C(=C/c2ccc3ncccc3c2)S1
GI50 [1]: 6.57 µM
TGI [1]: 13.5 µM
GI50 [2]: 5.93 µM
TGI [2]: > 25 µM
GI50 [3]: 4.27 µM
TGI [3]: 20.5 µM
GI50 [4]: 4.87 µM
TGI [4]: 19.6 µM
GI50 [5]: 6.22 µM
TGI [5]: > 20.5 µM
GI50 [6]: 7.28 µM
TGI [6]: 24.7 µM
GI50 [7]: 8.17 µM
TGI [7]: > 25 µM
GI50 [8]: 3.15 µM
TGI [8]: 18.2 µM
GI50 [9]: 3.52 µM
TGI [9]: > 15.6 µM
GI50 [10]: 5.86 µM
TGI [10]: > 21.8 µM
GI50 [11]: 3.34 µM
TGI [11]: > 25 µM
GI50 [12]: 7.52 µM
TGI [12]: > 25 µM
GI50 [13]: 8.24 µM
TGI [13]: > 25 µM
GI50 [14]: 7.39 µM
TGI [14]: > 18.1 µM
GI50 [15]: 5.92 µM
TGI [15]: 17.6 µM
GI50 [16]: 6.05 µM
TGI [16]: > 25 µM
GI50 [17]: 4.1 µM
TGI [17]: 24.9 µM
GI50 [18]: 8.7 µM
TGI [18]: > 25 µM
GI50 [19]: 6.02 µM
TGI [19]: 22.1 µM
GI50 [20]: 1.63 µM
TGI [20]: > 23.9 µM
GI50 [21]: 8.41 µM
TGI [21]: > 25 µM
GI50 [22]: 8.22 µM
TGI [22]: > 25 µM
GI50 [23]: 6.1 µM
TGI [23]: > 25 µM
GI50 [24]: 5.5 µM
TGI [24]: 16.9 µM
GI50 [25]: 6.21 µM
TGI [25]: > 25 µM
GI50 [26]: 6.76 µM
TGI [26]: > 23.1 µM
GI50 [27]: 6.75 µM
TGI [27]: > 25 µM
GI50 [28]: 2.86 µM
TGI [28]: > 19.6 µM
GI50 [29]: 4.99 µM
TGI [29]: 12.2 µM
GI50 [30]: 2.47 µM
TGI [30]: 15.7 µM
GI50 [31]: 1.63 µM
TGI [31]: > 12.4 µM
GI50 [32]: 4.48 µM
TGI [32]: 15.7 µM
GI50 [33]: 3.71 µM
TGI [33]: > 19.2 µM
GI50 [34]: 4.93 µM
TGI [34]: > 25 µM
GI50 [35]: 4.48 µM
TGI [35]: > 21.7 µM
GI50 [36]: 5.45 µM
TGI [36]: 23 µM
GI50 [37]: 1.43 µM
TGI [37]: > 25 µM
GI50 [38]: 4.54 µM
TGI [38]: > 25 µM
GI50 [39]: 7.06 µM
TGI [39]: > 23.1 µM
GI50 [40]: 5.98 µM
TGI [40]: 24.5 µM
GI50 [41]: 6.93 µM
TGI [41]: > 25 µM
GI50 [42]: 0.743 µM
TGI [42]: 3.02 µM
GI50 [43]: 1.32 µM
TGI [43]: > 25 µM
GI50 [44]: 7.44 µM
TGI [44]: > 23 µM
GI50 [45]: 7.97 µM
TGI [45]: > 25 µM
GI50 [46]: 9.39 µM
TGI [46]: > 25 µM
GI50 [47]: 2.36 µM
TGI [47]: 7.54 µM
GI50 [48]: 4.2 µM
TGI [48]: 14.7 µM
GI50 [49]: 1.37 µM
TGI [49]: > 25 µM
GI50 [50]: 5.67 µM
TGI [50]: 14.4 µM
GI50 [51]: 1.32 µM
TGI [51]: > 25 µM
GI50 [52]: 4.33 µM
TGI [52]: 19.6 µM
GI50 [53]: 5.25 µM
TGI [53]: 16.3 µM
GI50 [54]: 8.56 µM
TGI [54]: > 25 µM
GI50 [55]: 6.42 µM
TGI [55]: 15.7 µM
GI50 [56]: 3.45 µM
TGI [56]: 12.3 µM
GI50 [57]: 7.54 µM
TGI [57]: > 25 µM
